In ChEMBL document CHEMBL3046099, “Effect of reduced risk pesticides on greenhouse vegetable arthropod biological control agents” (2011):

What was measured:
[1] = system: Eretmocerus eremicus; assay: Toxicity in Eretmocerus eremicus infested green bean leaves assessed as mortality at 2 times of recommended rate at 48 hr by leaf dip method (reference value: 10%); assay type: functional
[2] = system: Orius insidiosus; assay: Toxicity in Orius insidiosus infested green bean leaves assessed as mortality at 2 times recommended rate at 48 hr by leaf dip method (reference value: 20%); assay type: functional
[3] = system: Amblyseius swirskii; assay: Toxicity in Typhlodromips swirskii infested green bean leaves assessed as mortality at 2 times recommended rate at 48 hr by leaf dip method (reference value: 10%); assay type: functional
[4] = system: Eretmocerus eremicus; assay: Toxicity in Eretmocerus eremicus infested green bean leaves assessed as mortality at recommended rate at 48 hr by leaf dip method (reference value: 10%); assay type: functional
[5] = system: Amblyseius swirskii; assay: Toxicity in Typhlodromips swirskii infested green bean leaves assessed as mortality at recommended rate at 48 hr by leaf dip method (reference value: 10%); assay type: functional
[6] = system: Orius insidiosus; assay: Toxicity in Orius insidiosus infested green bean leaves assessed as mortality at recommended rate at 48 hr by leaf dip method (reference value: 20%); assay type: functional
[7] = system: Eretmocerus eremicus; assay: Toxicity in Eretmocerus eremicus infested cucumber leaves assessed as mortality at recommended rate after 15 days under green house condition (reference value: 30%); assay type: functional, organism-based

CNC(=O)c1cc(Cl)cc(C)c1NC(=O)c1cc(Br)nn1-c1ncccc1Cl [CHLORANTRANILIPROLE]
mortality [1]: 0%
mortality [2]: 16%
mortality [3]: 14.3%
mortality [4]: 0%
mortality [5]: 15.8%
mortality [6]: 8%

CCCCC(C#N)(Cn1cncn1)c1ccc(Cl)cc1 (stereo not given) [MYCLOBUTANIL]
mortality [1]: 5.3%
mortality [3]: 17%
mortality [4]: 5%
mortality [5]: 7.5%

O=C([O-])O.[K+] [POTASSIUM BICARBONATE]
mortality [1]: 2.5%
mortality [3]: 8.8%
mortality [4]: 2.5%
mortality [5]: 19.8%

METAFLUMIZONE
mortality [1]: 0%
mortality [3]: 8.8%
mortality [4]: 0%
mortality [5]: 14.5%
mortality [7]: 4.4%
mortality [6]: 69%
